Patent US8106048B2, “Heterocyclic NF-κB inhibitors” (4SC AG, priority 2004, dated 2012)

Tests used:
[1] = tested on: NF-κB; settings: cited from earlier work
[2] = tested on: TNF-α; settings: mouse; cited from earlier work
[3] = tested on: NF-κB; settings: cited from earlier work; remark: listed apart in the source
[4] = tested on: IκB-α; settings: cited from earlier work
[5] = tested on: p65 subunit of NF-κB; settings: cited from earlier work
[6] = molecular target: T1, 20S and 26S proteasome (Homo sapiens, UniProt P28072+P28074+Q99436); settings: cited from earlier work
T1 sequence (P28074 60-263): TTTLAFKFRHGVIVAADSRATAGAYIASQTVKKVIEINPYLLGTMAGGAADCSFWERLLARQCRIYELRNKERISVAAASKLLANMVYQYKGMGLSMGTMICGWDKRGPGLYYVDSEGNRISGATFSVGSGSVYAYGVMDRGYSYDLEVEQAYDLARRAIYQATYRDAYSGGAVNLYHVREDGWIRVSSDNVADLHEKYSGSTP
T1 sequence (P28072 1-239): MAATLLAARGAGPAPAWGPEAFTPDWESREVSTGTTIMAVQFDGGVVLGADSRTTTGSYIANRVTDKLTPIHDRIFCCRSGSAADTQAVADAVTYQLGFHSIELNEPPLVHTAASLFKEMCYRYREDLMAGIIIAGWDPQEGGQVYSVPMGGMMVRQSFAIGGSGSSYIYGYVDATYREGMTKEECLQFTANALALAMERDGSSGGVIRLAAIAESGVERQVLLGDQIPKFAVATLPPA
T1 sequence (Q99436 44-277): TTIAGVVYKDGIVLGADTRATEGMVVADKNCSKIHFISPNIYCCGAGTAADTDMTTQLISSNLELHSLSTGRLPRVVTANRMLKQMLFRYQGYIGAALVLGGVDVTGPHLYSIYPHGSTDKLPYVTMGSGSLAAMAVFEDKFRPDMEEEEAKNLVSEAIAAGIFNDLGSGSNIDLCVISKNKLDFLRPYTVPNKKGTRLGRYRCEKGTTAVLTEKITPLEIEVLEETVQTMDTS

[7] = tested on: A549-NF-κB-SEAP reporter cells; test: Inhibition of NF-κB-induced inflammation: […] NINA Instant Assay, TNF-α stimulated SEAP reporter; assay type: cell-based
How it was run: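 A549 cells carrying an NF-κB-driven SEAP reporter were pretreated with compound (0.01–100 μM) for 4.5 h, then stimulated with 2 ng/ml TNF-α for 22 h. After inactivation of endogenous phosphatases, SEAP activity was read by CSPD chemiluminescence (40 min). EC50 values were fitted from quadruplicate data points.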

CCN(CC)CCNC(=O)c1ccc(N)c(Cl)c1 [3-chloroprocainamide]
inhibition of NF-κB transcriptional activation [1]: inhibitors of NF-κB transcritional activation
lipopolysaccharide-induced TNF-α production [2]: blocked lipopolysacharide-induced TNF-α production in mouse in a dose dependent manner

C=C1C(=O)O[C@@H]2C[C@H](C)[C@H]3C=CC(=O)[C@@]3(C)[C@@H](O)[C@H]12 [Helenalin]
NF-κB activation / activity [3]: inhibit NF-κB activity by selectively alkylating the cysteine residue of the p65 subunit of NF-κB
IκB degradation [4]: did not inhibit
translocation of NF-κB to the nucleus [5]: did not inhibit

CC(=O)N[C@@H](CSC(=O)[C@]1([C@@H](O)C(C)C)NC(=O)[C@H](C)[C@@H]1O)C(=O)O [Lactacystin]
inhibition of 20S and 26S proteasome [6]: inhibits both, 20S and 26S proteasome
inhibitory activity on proteasome peptidase activities ([6]; trypsin-like, chymotrypsin-like, peptidylglutamylpeptide hydrolyzing): inhibitory activity on trypsin-like, chymotrypsin-like and peptidylglutamylpeptide hydrolyzing activities

COc1cc(CNC(=O)CCCC/C=C/C(C)C)ccc1O [capsaicin]
NF-κB activation / activity [3]: blocked TNF-α and phorbol mediated NF-κB activation
IκB degradation [4]: blocked degradation of IκB-α
translocation of NF-κB to the nucleus [5]: blocked

O=C(c1csc(C2CCN(C(=O)c3cc4ccccc4s3)CC2)n1)N1CCN(c2cccc(C(F)(F)F)c2)CC1 [compound 213]
Biological activity (inhibition in the NF-κB inflammation assay) ([7]; % inhibition classes): ++ (“++” means 80-90%)

O=C(C=Cc1ccccc1)N1CCC(c2nc(C(=O)N3CCN(c4cccc(C(F)(F)F)c4)CC3)cs2)CC1 [compound 214]
Biological activity (inhibition in the NF-κB inflammation assay) ([7]; % inhibition classes): ++ (“++” means 80-90%)

O=C(c1ccc(C(F)(F)F)c(F)c1)N1CCC(c2nc(C(=O)N3CCN(c4cccc(C(F)(F)F)c4)CC3)cs2)CC1 [compound 215]
Biological activity (inhibition in the NF-κB inflammation assay) ([7]; % inhibition classes): +++ (“+++” stands for 90-100% inhibition)

Cn1nc(C(C)(C)C)cc1C(=O)N1CCC(c2nc(C(=O)N3CCN(c4cccc(C(F)(F)F)c4)CC3)cs2)CC1 [compound 216]
Biological activity (inhibition in the NF-κB inflammation assay) ([7]; % inhibition classes): ++ (“++” means 80-90%)

O=C(c1csc(C2CCN(C(=O)C3COc4ccccc4O3)CC2)n1)N1CCN(c2cccc(C(F)(F)F)c2)CC1 (stereo not shown) [compound 217]
Biological activity (inhibition in the NF-κB inflammation assay) ([7]; % inhibition classes): +++ (“+++” stands for 90-100% inhibition)

O=C(c1csc(C2CCN(C(=O)c3cc(-c4ccc(Cl)cc4)oc3C(F)(F)F)CC2)n1)N1CCN(c2cccc(C(F)(F)F)c2)CC1 [compound 218]
Biological activity (inhibition in the NF-κB inflammation assay) ([7]; % inhibition classes): +++ (“+++” stands for 90-100% inhibition)

Cc1noc(C)c1C(=O)N1CCC(c2nc(C(=O)N3CCN(c4cccc(C(F)(F)F)c4)CC3)cs2)CC1 [compound 219]
Biological activity (inhibition in the NF-κB inflammation assay) ([7]; % inhibition classes): + (“+” stands for 50-80% inhibition)

Cc1nnsc1C(=O)N1CCC(c2nc(C(=O)N3CCN(c4cccc(C(F)(F)F)c4)CC3)cs2)CC1 [compound 221]
Biological activity (inhibition in the NF-κB inflammation assay) ([7]; % inhibition classes): + (“+” stands for 50-80% inhibition)

O=C(c1cccnc1)N1CCC(c2nc(C(=O)N3CCN(c4cccc(C(F)(F)F)c4)CC3)cs2)CC1 [compound 222]
Biological activity (inhibition in the NF-κB inflammation assay) ([7]; % inhibition classes): + (“+” stands for 50-80% inhibition)

O=C(c1csc(C2CCN(C(=O)c3ccccc3OC(F)(F)F)CC2)n1)N1CCN(c2cccc(C(F)(F)F)c2)CC1 [compound 223]
Biological activity (inhibition in the NF-κB inflammation assay) ([7]; % inhibition classes): +++ (“+++” stands for 90-100% inhibition)

O=C(CCC1CCCC1)N1CCC(c2nc(C(=O)N3CCN(c4cccc(C(F)(F)F)c4)CC3)cs2)CC1 [compound 224]
Biological activity (inhibition in the NF-κB inflammation assay) ([7]; % inhibition classes): + (“+” stands for 50-80% inhibition)

COc1cc(C(=O)N2CCC(c3nc(C(=O)N4CCN(c5cccc(C(F)(F)F)c5)CC4)cs3)CC2)cc(OC)c1OC [compound 225]
Biological activity (inhibition in the NF-κB inflammation assay) ([7]; % inhibition classes): + (“+” stands for 50-80% inhibition)

CN(C)c1cccc(C(=O)N2CCC(c3nc(C(=O)N4CCN(c5cccc(C(F)(F)F)c5)CC4)cs3)CC2)c1 [compound 226]
Biological activity (inhibition in the NF-κB inflammation assay) ([7]; % inhibition classes): ++ (“++” means 80-90%)

COC(=O)CC1c2ccccc2CCN1C(=O)c1csc(C2CCN(C(=O)Cc3ccc(F)cc3)CC2)n1 (stereo not shown) [compound 227]
Biological activity (inhibition in the NF-κB inflammation assay) ([7]; % inhibition classes): + (“+” stands for 50-80% inhibition)

N#CC1(c2ccccc2)CCN(C(=O)c2csc(C3CCN(C(=O)Cc4ccc(F)cc4)CC3)n2)CC1 [compound 228]
Biological activity (inhibition in the NF-κB inflammation assay) ([7]; % inhibition classes): + (“+” stands for 50-80% inhibition)

COc1ccccc1N1CCN(C(=O)c2csc(C3CCN(C(=O)Cc4ccc(F)cc4)CC3)n2)CC1 [compound 229]
Biological activity (inhibition in the NF-κB inflammation assay) ([7]; % inhibition classes): + (“+” stands for 50-80% inhibition)

O=C(c1csc(C2CCN(C(=O)c3ccco3)CC2)n1)N1CCN(c2cccc(C(F)(F)F)c2)CC1 [compound 230]
Biological activity (inhibition in the NF-κB inflammation assay) ([7]; % inhibition classes): + (“+” stands for 50-80% inhibition)

CCCCN1CCN(C(=O)c2csc(C3CCN(C(=O)Cc4ccc(F)cc4)CC3)n2)CC1 [compound 231]
Biological activity (inhibition in the NF-κB inflammation assay) ([7]; % inhibition classes): + (“+” stands for 50-80% inhibition)

COc1cc2c(cc1OC)CN(C(=O)c1csc(C3CCN(C(=O)Cc4ccc(F)cc4)CC3)n1)C(C)C2 (stereo not shown) [compound 232]
Biological activity (inhibition in the NF-κB inflammation assay) ([7]; % inhibition classes): + (“+” stands for 50-80% inhibition)

CC1c2cc(O)c(O)cc2CCN1C(=O)c1csc(C2CCN(C(=O)Cc3ccc(F)cc3)CC2)n1 (stereo not shown) [compound 233]
Biological activity (inhibition in the NF-κB inflammation assay) ([7]; % inhibition classes): + (“+” stands for 50-80% inhibition)

COc1cc2c(cc1OC)C(C)N(C(=O)c1csc(C3CCN(C(=O)Cc4ccc(F)cc4)CC3)n1)CC2 (stereo not shown) [compound 234]
Biological activity (inhibition in the NF-κB inflammation assay) ([7]; inhibition classes): + (“+” stands for 50-80% inhibition)

CNc1ccc(Cl)cc1C1c2ccccc2CCN1C(=O)c1csc(C2CCN(C(=O)Cc3ccc(F)cc3)CC2)n1 (stereo not shown) [compound 235]
Biological activity (inhibition in the NF-κB inflammation assay) ([7]; inhibition classes): + (“+” stands for 50-80% inhibition)

O=C(Cc1ccc(F)cc1)N1CCC(c2nc(C(=O)N3CCCC3c3ccc(F)cc3)cs2)CC1 (stereo not shown) [compound 236]
Biological activity (inhibition in the NF-κB inflammation assay) ([7]; inhibition classes): + (“+” stands for 50-80% inhibition)

O=C(Cc1ccc(F)cc1)N1CCC(c2nc(C(=O)N3CCN(c4ccccn4)CC3)cs2)CC1 [compound 237]
Biological activity (inhibition in the NF-κB inflammation assay) ([7]; inhibition classes): + (“+” stands for 50-80% inhibition)

O=C(Cc1ccc(F)cc1)N1CCC(c2nc(C(=O)N3CCN(c4cccc(Cl)c4)CC3)cs2)CC1 [compound 238]
Biological activity (inhibition in the NF-κB inflammation assay) ([7]; inhibition classes): + (“+” stands for 50-80% inhibition)

COc1ccc(OC)c(N2CCC(c3nc(C(=O)N4CCN(c5cccc(C(F)(F)F)c5)CC4)cs3)CC2)c1 [compound 239]
Biological activity (inhibition in the NF-κB inflammation assay) ([7]; inhibition classes): + (“+” stands for 50-80% inhibition)

COc1cc(NC(=O)N2CCC(c3nc(C(=O)N4CCN(c5cccc(C(F)(F)F)c5)CC4)cs3)CC2)cc(OC)c1OC [compound 240]
Biological activity (inhibition in the NF-κB inflammation assay) ([7]; inhibition classes): ++ (“++” means 80-90%)

NC(=O)c1cccnc1 [nicotinamide]
lipopolysaccharide-induced TNF-α production [2]: blocked lipopolysacharide-induced TNF-α production in mouse in a dose dependent manner

S=C(S)N1CCCC1 [pyrrolidine dithiocarbamate]
inhibition of NF-κB transcriptional activation [1]: inhibitors of NF-κB transcritional activation
lipopolysaccharide-induced TNF-α production [2]: blocked lipopolysacharide-induced TNF-α production in mouse in a dose dependent manner
